The text below walks through data of US5847092A (Zambon Group S.p.A., priority 1994, dated 1998).

Holding throughout (test): In vitro antibacterial activity, MIC, broth microdilution
Holding throughout (type): cell-based
A general note: In broth dilution the organism is exposed to a series of concentrations in liquid medium.

Assay [1] concerns Escherichia coli ATCC 25922. The following applies: Escherichia coli, ATCC25922; E. coli ATCC 25922; MHB; 37° C., 18 hours; read-out: minimum inhibiting concentration MIC. The protocol:
(§1) a) In vitro antibacterial activity The determination of the minimum inhibiting concentrations (MIC), with respect to Gram-positive and Gram-negative bacteria was carried out through the micromethod of gradual broth dilution in double series [National Committee for Clinical Laboratory Standards, 1990; Methods for dilution antimicrobial susceptibility tests for bacteria that grow aerobically; Approved standards […], Villanova, Pa.], by using Mueller Hinton Broth (MHB) as a culture medium. In the case of […] bacteria, horse serum at 5% (Streptococcus pneumoniae and Streptococcus pyogenes) was added to the medium. Roxithromycin and Clarithromycin [The Merck Index, XI Ed., No. 8253 and 2340, respectively] were used as reference macrolides. MIC, expressed as (μg/ml), were determined after incubation of the microplates at 37° C. for 18 hours, evaluating the lowest antibiotic concentration enabling the inhibition of bacterial development.

Assay [2] relates to Streptococcus pneumoniae BS 4. The following applies: Streptococcus pneumoniae, BS4; S. pneumoniae BS 4; MHB + 5% horse serum; 37° C., 18 hours; read-out: minimum inhibiting concentration MIC. The protocol: as §1
For assay [3], the system named is Staphylococcus aureus PV 14. Particulars: Staphylococcus aureus, PV14; S. aureus PV 14; MHB; 37° C., 18 hours; read-out: minimum inhibiting concentration MIC. The protocol:
as §1

Assay [4] has as its system Streptococcus pneumoniae BS 3. Particulars: Streptococcus pneumoniae, BS3; S. pneumoniae BS 3; MHB + 5% horse serum; 37° C., 18 hours; read-out: minimum inhibiting concentration MIC. The protocol: as §1
The subject of assay [5] is Enterococcus faecalis ATCC 29212. Particulars: Enterococcus faecalis, ATCC29212; E. faecalis ATCC 29212; MHB; 37° C., 18 hours; read-out: minimum inhibiting concentration MIC. The protocol: as §1
Assay [6] deals with Klebsiella pneumoniae ZC 2. The following applies: Klebsiella pneumoniae, ZC2; K. pneumoniae ZC 2; MHB; 37° C., 18 hours; read-out: minimum inhibiting concentration MIC. The protocol:
as §1

In assay [7] the test system is Streptococcus pyogenes A 26. Particulars: Streptococcus pyogenes, A26; S. pyogenes A 26; MHB + 5% horse serum; 37° C., 18 hours; read-out: minimum inhibiting concentration MIC. The protocol: as §1
Assay [8] relates to Streptococcus pyogenes C 203. The following applies: Streptococcus pyogenes, C203; S. pyogenes C 203; MHB + 5% horse serum; 37° C., 18 hours; read-out: minimum inhibiting concentration MIC. The protocol: as §1

Each structure is given as a SMILES string. In brackets after ≈: the same amount, converted by molar mass.

For `CC[C@H]1OC(=O)[C@H](C)[C@@H](O[C@H]2C[C@@](C)(OC)[C@@H](O)[C@H](C)O2)[C@H](C)[C@@H](O[C@@H]2O[C@H](C)C[C@H](N(C)C)[C@H]2O)[C@](C)(O)C[C@@H](C)/C(=N\OCCNCCCCCCNCc2cccc(O)c2)[C@H](C)[C@@H](O)[C@]1(C)O` [Compound 25, Erythromycin A (E)-9-[0-[2-[6-[(3-hydroxyphenyl)methylamino]hexylamino]ethyl]oxime]], the MIC was 8 µg/mL (≈ 8.02 µM) in assay [1]; 0.25 µg/mL in assay [2]; 0.125 µg/mL (≈ 0.125 µM) in assay [3]; 0.25 µg/mL in assay [4]; 8 µg/mL (≈ 8.02 µM) in assay [5]; 16 µg/mL (≈ 16 µM) in assay [6]. In addition, the MIC in assay [7] came out at 0.125 µg/mL; in assay [8], 0.0312 µg/mL.

As for `CC[C@H]1OC(=O)[C@H](C)[C@@H](O[C@H]2C[C@@](C)(OC)[C@@H](O)[C@H](C)O2)[C@H](C)[C@@H](O[C@@H]2O[C@H](C)C[C@H](N(C)C)[C@H]2O)[C@](C)(O)C[C@@H](C)/C(=N\OCCNCCCCCCNCc2ccc(O)cc2)[C@H](C)[C@@H](O)[C@]1(C)O` [Compound 28, Erythromycin A (E)-9-[0-[2-[6-[(4-hydroxyphenyl)methylamino]hexylamino]ethyl]oxime]], the MIC in assay [1] came out at 16 µg/mL (≈ 16 µM); in assay [2], 0.25 µg/mL; in assay [3], 0.125 µg/mL (≈ 0.125 µM); in assay [4], 0.25 µg/mL; in assay [5] it was 16 µg/mL (≈ 16 µM); in assay [6], 32 µg/mL (≈ 32.1 µM). For the same compound, the MIC in assay [7] came out at 0.25 µg/mL; in assay [8] it was 0.125 µg/mL.

Turning to `CC[C@H]1OC(=O)[C@H](C)[C@@H](O[C@H]2C[C@@](C)(OC)[C@@H](O)[C@H](C)O2)[C@H](C)[C@@H](O[C@@H]2O[C@H](C)C[C@H](N(C)C)[C@H]2O)[C@](C)(O)C[C@@H](C)/C(=N\OCCNCCCCCCNCc2ccccc2O)[C@H](C)[C@@H](O)[C@]1(C)O` [Compound 24, Erythromycin A (E)-9-[0-[2-[6-[(2-hydroxyphenyl)methylamino]hexylamino]ethyl]oxime]], the MIC in assay [1] was 4 µg/mL (≈ 4.01 µM); in assay [2] it was 0.0156 µg/mL; in assay [3] it was 0.25 µg/mL (≈ 0.251 µM); in assay [4], 0.0078 µg/mL; in assay [5] it was 4 µg/mL (≈ 4.01 µM); in assay [6], 8 µg/mL (≈ 8.02 µM). The MIC in assay [7] turned out to be 0.0156 µg/mL; in assay [8], 0.0039 µg/mL.

Take `CC[C@H]1OC(=O)[C@H](C)[C@@H](O[C@H]2C[C@@](C)(OC)[C@@H](O)[C@H](C)O2)[C@H](C)[C@@H](O[C@@H]2O[C@H](C)C[C@H](N(C)C)[C@H]2O)[C@](C)(O)C[C@@H](C)/C(=N\OCCCNCCCCCCNCc2ccccc2)[C@H](C)[C@@H](O)[C@]1(C)O` [Compound 12, Erythromycin A (E)-9-[0-[3-[6-(phenylmethylamino)hexylamino]propyl]oxime]]: the MIC worked out at 8 µg/mL (≈ 8.04 µM) in assay [1]; 0.5 µg/mL in assay [2]; 0.25 µg/mL (≈ 0.251 µM) in assay [3]; 0.25 µg/mL in assay [4]; 16 µg/mL (≈ 16.1 µM) in assay [5]; 32 µg/mL (≈ 32.1 µM) in assay [6]. Moreover, the MIC in assay [7] came to 0.0625 µg/mL; in assay [8] it was 0.0312 µg/mL.

`CC[C@H]1OC(=O)[C@H](C)[C@@H](O[C@H]2C[C@@](C)(OC)[C@@H](O)[C@H](C)O2)[C@H](C)[C@@H](O[C@@H]2O[C@H](C)C[C@H](N(C)C)[C@H]2O)[C@](C)(O)C[C@@H](C)/C(=N\OCCNCCCCCCCCNCc2ccccc2)[C@H](C)[C@@H](O)[C@]1(C)O` [Compound 9, Erythromycin A (E)-9-[0-[2-[8-(phenylmethyiamino)octylamino]ethyl]oxime]]: the MIC in assay [1] was determined as 4 µg/mL (≈ 3.96 µM); in assay [2], 0.0078 µg/mL; in assay [3] it was 0.25 µg/mL (≈ 0.248 µM); in assay [4], 0.0078 µg/mL; in assay [5], 4 µg/mL (≈ 3.96 µM); in assay [6], 16 µg/mL (≈ 15.9 µM). The MIC in assay [7] worked out at 0.0078 µg/mL; in assay [8], 0.0039 µg/mL.

On to `CC[C@H]1OC(=O)[C@H](C)[C@@H](O[C@H]2C[C@@](C)(OC)[C@@H](O)[C@H](C)O2)[C@H](C)[C@@H](O[C@@H]2O[C@H](C)C[C@H](N(C)C)[C@H]2O)[C@](C)(O)C[C@@H](C)/C(=N\OCCCCCNCCCCCCNCc2ccccc2)[C@H](C)[C@@H](O)[C@]1(C)O` [Compound 11, Erythromycin A (E)-9-[0-[5-[6-(phenylmethylamino)hexylamino]pentyl]oxime]], for which the MIC amounted to 8 µg/mL (≈ 7.82 µM) in assay [1]; 0.5 µg/mL in assay [2]; 0.5 µg/mL (≈ 0.489 µM) in assay [3]; 0.25 µg/mL in assay [4]; 16 µg/mL (≈ 15.6 µM) in assay [5]; 16 µg/mL (≈ 15.6 µM) in assay [6]. The MIC in assay [7] was 0.0625 µg/mL; in assay [8], 0.0312 µg/mL.

On to `CC[C@H]1OC(=O)[C@H](C)[C@@H](O[C@H]2C[C@@](C)(OC)[C@@H](O)[C@H](C)O2)[C@H](C)[C@@H](O[C@@H]2O[C@H](C)C[C@H](N(C)C)[C@H]2O)[C@](C)(O)C[C@@H](C)/C(=N\OCCCCCCNCCCNCc2ccccc2)[C@H](C)[C@@H](O)[C@]1(C)O` [Compound 7, Erythromycin A (E)-9-[0-[6-[3-(phenylmethylamino)propylamino]hexyl]oxime]], for which the MIC in assay [1] was determined as 4 µg/mL (≈ 4.02 µM); in assay [2] it was 0.0625 µg/mL; in assay [3], 0.5 µg/mL (≈ 0.502 µM); in assay [4], 0.0625 µg/mL; in assay [5], 4 µg/mL (≈ 4.02 µM); in assay [6], 16 µg/mL (≈ 16.1 µM). Moreover, the MIC in assay [7] turned out to be 0.0312 µg/mL; in assay [8], 0.0156 µg/mL.

`CC[C@H]1OC(=O)[C@H](C)[C@@H](O[C@H]2C[C@@](C)(OC)[C@@H](O)[C@H](C)O2)[C@H](C)[C@@H](O[C@@H]2O[C@H](C)C[C@H](N(C)C)[C@H]2O)[C@](C)(O)C[C@@H](C)/C(=N\OCCNCCCCCCNCc2ccc(O)c([N+](=O)[O-])c2)[C@H](C)[C@@H](O)[C@]1(C)O` [Compound 36, Erythromycin A (E)-9-[0-[2-[6-[(4-hydroxy-3-nitrophenyl)methylamino]hexylamino]ethyl]oxime]]: the MIC worked out at 8 µg/mL (≈ 7.68 µM) in assay [1]; 0.0625 µg/mL in assay [2]; 0.5 µg/mL (≈ 0.48 µM) in assay [3]; 0.0625 µg/mL in assay [4]; 16 µg/mL (≈ 15.4 µM) in assay [5]; 32 µg/mL (≈ 30.7 µM) in assay [6]. The figures for the MIC in assay [7] and in assay [8] were 0.0625 µg/mL and 0.0078 µg/mL, respectively.

For `CC[C@H]1OC(=O)[C@H](C)[C@@H](O[C@H]2C[C@@](C)(OC)[C@@H](O)[C@H](C)O2)[C@H](C)[C@@H](O[C@@H]2O[C@H](C)C[C@H](N(C)C)[C@H]2O)[C@](C)(O)C[C@@H](C)/C(=N\OCCCCCCNCCCCCNCc2ccccc2)[C@H](C)[C@@H](O)[C@]1(C)O` [Compound 8, Erythromycin A (E)-9-[0-[6-[5-(phenylmethylamino)pentylamino]hexyl]oxime]], the MIC in assay [1] turned out to be 4 µg/mL (≈ 3.91 µM); in assay [2], 0.5 µg/mL; in assay [3], 0.5 µg/mL (≈ 0.489 µM); in assay [4], 0.25 µg/mL; in assay [5], 8 µg/mL (≈ 7.82 µM); in assay [6], 16 µg/mL (≈ 15.6 µM). For the same compound, the MIC stood at 0.0312 µg/mL in assay [7] and 0.0078 µg/mL in assay [8].

On to `CC[C@H]1OC(=O)[C@H](C)[C@@H](O[C@H]2C[C@@](C)(OC)[C@@H](O)[C@H](C)O2)[C@H](C)[C@@H](O[C@@H]2O[C@H](C)C[C@H](N(C)C)[C@H]2O)[C@](C)(O)C[C@@H](C)/C(=N\OCCCCCCNCCCCCCNCc2ccccc2)[C@H](C)[C@@H](O)[C@]1(C)O` [Compound 6, Erythromycin A (E)-9-[0-[6-[6-(phenylmethylamino)hexylamino]hexyl]oxime]], for which the MIC was 4 µg/mL (≈ 3.86 µM) in assay [1]; 0.0312 µg/mL in assay [2]; 0.25 µg/mL (≈ 0.241 µM) in assay [3]; 0.0156 µg/mL in assay [4]; 8 µg/mL (≈ 7.71 µM) in assay [5]; 16 µg/mL (≈ 15.4 µM) in assay [6]. Also, the MIC was determined as 0.0312 µg/mL in assay [7] and 0.0156 µg/mL in assay [8].
